Reference: PubChem BioAssay (NCI)
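1) Cells in 96-well plates. 2) Compound, 48 h, 5 concentrations. 3) Linear interpolation between surrounding doses. 4) Unreached endpoint = highest concentration. Definition used: TGI = concentration required for complete inhibition of growth.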

Legend:
Test in all cases: NCI anticancer screen, dose series, 48 h
COLO 205 colon = tested on: COLO 205 colon
IGROV1 ovarian = tested on: IGROV1 ovarian
HT29 colon = tested on: HT29 colon
NCI-H522 lung = tested on: NCI-H522 lung
HCT-116 colon = tested on: HCT-116 colon
NCI-H460 lung = tested on: NCI-H460 lung
UACC-62 melanoma = tested on: UACC-62 melanoma
LXFL 529 NSCLC = tested on: LXFL 529 NSCLC
EKVX NSCLC = tested on: EKVX NSCLC
HCC-2998 colon = tested on: HCC-2998 colon
U251 CNS = tested on: U251 CNS
OVCAR-4 ovarian = tested on: OVCAR-4 ovarian
M14 melanoma = tested on: M14 melanoma
DLD-1 colon = tested on: DLD-1 colon
M19-MEL melanoma = tested on: M19-MEL melanoma
SF-268 CNS = tested on: SF-268 CNS
K-562 leukemia = tested on: K-562 leukemia
SN12C renal = tested on: SN12C renal
SNB-75 CNS = tested on: SNB-75 CNS
SNB-78 CNS = tested on: SNB-78 CNS
CAKI-1 renal = tested on: CAKI-1 renal
TK-10 renal = tested on: TK-10 renal
A549 NSCLC = tested on: A549 NSCLC
SF-295 CNS = tested on: SF-295 CNS
UO-31 renal = tested on: UO-31 renal
SK-MEL-5 melanoma = tested on: SK-MEL-5 melanoma
HOP-18 NSCLC = tested on: HOP-18 NSCLC
OVCAR-5 ovarian = tested on: OVCAR-5 ovarian
SF-539 CNS = tested on: SF-539 CNS
ACHN renal = tested on: ACHN renal
HOP-92 NSCLC = tested on: HOP-92 NSCLC
KM12 colon = tested on: KM12 colon
HCT-15 colon = tested on: HCT-15 colon
MOLT-4 leukemia = tested on: MOLT-4 leukemia
A498 renal = tested on: A498 renal
SW-620 colon = tested on: SW-620 colon
786-0 renal = tested on: 786-0 renal
SNB-19 CNS = tested on: SNB-19 CNS
HOP-62 NSCLC = tested on: HOP-62 NSCLC
RXF 393 renal = tested on: RXF 393 renal
OVCAR-8 ovarian = tested on: OVCAR-8 ovarian
DMS 114 small cell lung = tested on: DMS 114 small cell lung
UACC-257 melanoma = tested on: UACC-257 melanoma
NCI-H23 lung = tested on: NCI-H23 lung
KM20L2 colon = tested on: KM20L2 colon
LOX IMVI melanoma = tested on: LOX IMVI melanoma
HL-60(TB) leukemia = tested on: HL-60(TB) leukemia
MALME-3M melanoma = tested on: MALME-3M melanoma
OVCAR-3 ovarian = tested on: OVCAR-3 ovarian
SR leukemia = tested on: SR leukemia
SK-MEL-28 melanoma = tested on: SK-MEL-28 melanoma
DMS 273 small cell lung = tested on: DMS 273 small cell lung
NCI-H226 lung = tested on: NCI-H226 lung
CCRF-CEM leukemia = tested on: CCRF-CEM leukemia
SK-OV-3 ovarian = tested on: SK-OV-3 ovarian
RPMI-8226 leukemia = tested on: RPMI-8226 leukemia
SK-MEL-2 melanoma = tested on: SK-MEL-2 melanoma

Measured: TGI

NC(CCSCC(F)(F)F)C(=O)O (centres undefined)
> 100 µM: COLO 205 colon | IGROV1 ovarian | HT29 colon | NCI-H522 lung | HCT-116 colon | NCI-H460 lung | UACC-62 melanoma | LXFL 529 NSCLC | EKVX NSCLC | HCC-2998 colon | U251 CNS | OVCAR-4 ovarian | M14 melanoma | DLD-1 colon | M19-MEL melanoma | SF-268 CNS | K-562 leukemia | SN12C renal | SNB-75 CNS | SNB-78 CNS | CAKI-1 renal | TK-10 renal | A549 NSCLC | SF-295 CNS | UO-31 renal | SK-MEL-5 melanoma | HOP-18 NSCLC | OVCAR-5 ovarian | SF-539 CNS | ACHN renal | HOP-92 NSCLC | KM12 colon | HCT-15 colon | MOLT-4 leukemia | A498 renal | SW-620 colon | 786-0 renal | SNB-19 CNS | HOP-62 NSCLC | RXF 393 renal | OVCAR-8 ovarian | DMS 114 small cell lung | UACC-257 melanoma | NCI-H23 lung | KM20L2 colon | LOX IMVI melanoma | HL-60(TB) leukemia | MALME-3M melanoma | OVCAR-3 ovarian | SR leukemia | SK-MEL-28 melanoma | DMS 273 small cell lung | NCI-H226 lung | CCRF-CEM leukemia

COC(=O)C(=O)C(CC(=O)Nc1cc(Cl)ccc1Cl)C(=O)OC (centres undefined)
> 100 µM: COLO 205 colon | IGROV1 ovarian | HT29 colon | NCI-H522 lung | HCT-116 colon | NCI-H460 lung | UACC-62 melanoma | LXFL 529 NSCLC | EKVX NSCLC | HCC-2998 colon | U251 CNS | OVCAR-4 ovarian | M14 melanoma | SF-268 CNS | K-562 leukemia | SN12C renal | SNB-75 CNS | SK-OV-3 ovarian | SNB-78 CNS | CAKI-1 renal | TK-10 renal | A549 NSCLC | SF-295 CNS | UO-31 renal | SK-MEL-5 melanoma | HOP-18 NSCLC | OVCAR-5 ovarian | SF-539 CNS | RPMI-8226 leukemia | ACHN renal | HOP-92 NSCLC | KM12 colon | HCT-15 colon | MOLT-4 leukemia | A498 renal | SW-620 colon | 786-0 renal | SNB-19 CNS | SK-MEL-2 melanoma | HOP-62 NSCLC | RXF 393 renal | OVCAR-8 ovarian | DMS 114 small cell lung | UACC-257 melanoma | NCI-H23 lung | KM20L2 colon | LOX IMVI melanoma | HL-60(TB) leukemia | MALME-3M melanoma | OVCAR-3 ovarian | SR leukemia | SK-MEL-28 melanoma | DMS 273 small cell lung | NCI-H226 lung | CCRF-CEM leukemia

CC1CC(C[N+](=O)[O-])CC2(C1)OCCO2 (centres undefined)
> 100 µM: COLO 205 colon | IGROV1 ovarian | NCI-H522 lung | HCT-116 colon | NCI-H460 lung | UACC-62 melanoma | LXFL 529 NSCLC | HCC-2998 colon | U251 CNS | OVCAR-4 ovarian | M14 melanoma | DLD-1 colon | M19-MEL melanoma | SF-268 CNS | K-562 leukemia | SN12C renal | SNB-75 CNS | SK-OV-3 ovarian | SNB-78 CNS | CAKI-1 renal | TK-10 renal | A549 NSCLC | UO-31 renal | SK-MEL-5 melanoma | HOP-18 NSCLC | SF-539 CNS | RPMI-8226 leukemia | ACHN renal | KM12 colon | HCT-15 colon | MOLT-4 leukemia | A498 renal | SW-620 colon | 786-0 renal | SNB-19 CNS | SK-MEL-2 melanoma | HOP-62 NSCLC | RXF 393 renal | OVCAR-8 ovarian | DMS 114 small cell lung | UACC-257 melanoma | KM20L2 colon | HL-60(TB) leukemia | MALME-3M melanoma | OVCAR-3 ovarian | SR leukemia | SK-MEL-28 melanoma | DMS 273 small cell lung | NCI-H226 lung | CCRF-CEM leukemia
